Test results as given in US5006535A, “Substituted heterocylic 4-aminoquinoline derivatives as gastric acid secretion inhibitors” (Smith Kline & French Laboratories Ltd., priority 1988, dated 1991).
pIC50: −log10 of the molar value.

Assays:
[1] = system: pentagastrin stimulated gastric acid secretion; assay: Rat Lumen Perfused Stomach (pentagastrin stimulated gastric acid secretion); format: in vivo; details: for % inhibition of pentagastrin stimulated gastric acid secretion: i.v., 10 μmole/kg
Description: B. Rat Lumen Perfused Stomach (pentagastrin stimulated gastric acid secretion).
Using a modification of the procedure described by Ghosh & Schild (Br. J. Pharmacology, 13, 54, 1958), the compounds of the following examples were found on i.v. administration at a concentration of 10 μmole/kg to cause an inhibition of pentagastrin stimulated gastric acid secretion as indicated in the following table. Results are given as % inhibition at 10 μmole/kg or ED50 (μM/kg): […]

H^+ K^+ ATPase = target: T1, H^+ K^+ ATPase (Sus scrofa, UniProt P19156); assay: H^+ K^+ ATPase Activity (K^+ -stimulated ATPase activity in lyophilised gastric vesicles); format: biochemical; details: pig lyophilised gastric vesicles, pH 7.0, 37°, 30 minutes
T1 construct: Lyophilised gastric vesicles were prepared from pig fundic mucosa; from tissue; host or cells: pig fundic mucosa, lyophilised gastric vesicles
Description: The effects of a single high concentration (100 μM) of a compound of structure (I) on K-stimulated ATPase activity in lyophilised gastric vesicles was determined. Preferred compounds of structure (I) were also tested over a range of concentrations to determine IC50 values.
Lyophilised gastric vesicles were prepared from pig fundic mucosa after the method of Keeling et. al. (Biochem. Pharmacol., 34, 2967, 1985).
K^+ -stimulated ATPase activity was determined at 37° in the presence of the following: 10 mM Pipes/Tris buffer pH 7.0, 2 mM MgSO4, 1 mM KCl, 2 mM Na2 ATP and 3-6 μg protein/ml lyophilised gastric vesicles. After incubation for 30 minutes, the inorganic phosphate hydrolysed from ATP was determined by the method of Yoda and Hokin (Biochem. Biophys. Res. Commun. 40, 880, 1970).
Compounds of structure (I) were dissolved in dimethylsulphoxide which up to the highest concentration used had no effect on K^+ -stimulated ATPase activity.
The effect of the highest concentration of each compound of structure (I) on the recovery of a standard amount of inorganic phosphate was also determined.

T1 sequence (P19156 2-1034 limits assumed): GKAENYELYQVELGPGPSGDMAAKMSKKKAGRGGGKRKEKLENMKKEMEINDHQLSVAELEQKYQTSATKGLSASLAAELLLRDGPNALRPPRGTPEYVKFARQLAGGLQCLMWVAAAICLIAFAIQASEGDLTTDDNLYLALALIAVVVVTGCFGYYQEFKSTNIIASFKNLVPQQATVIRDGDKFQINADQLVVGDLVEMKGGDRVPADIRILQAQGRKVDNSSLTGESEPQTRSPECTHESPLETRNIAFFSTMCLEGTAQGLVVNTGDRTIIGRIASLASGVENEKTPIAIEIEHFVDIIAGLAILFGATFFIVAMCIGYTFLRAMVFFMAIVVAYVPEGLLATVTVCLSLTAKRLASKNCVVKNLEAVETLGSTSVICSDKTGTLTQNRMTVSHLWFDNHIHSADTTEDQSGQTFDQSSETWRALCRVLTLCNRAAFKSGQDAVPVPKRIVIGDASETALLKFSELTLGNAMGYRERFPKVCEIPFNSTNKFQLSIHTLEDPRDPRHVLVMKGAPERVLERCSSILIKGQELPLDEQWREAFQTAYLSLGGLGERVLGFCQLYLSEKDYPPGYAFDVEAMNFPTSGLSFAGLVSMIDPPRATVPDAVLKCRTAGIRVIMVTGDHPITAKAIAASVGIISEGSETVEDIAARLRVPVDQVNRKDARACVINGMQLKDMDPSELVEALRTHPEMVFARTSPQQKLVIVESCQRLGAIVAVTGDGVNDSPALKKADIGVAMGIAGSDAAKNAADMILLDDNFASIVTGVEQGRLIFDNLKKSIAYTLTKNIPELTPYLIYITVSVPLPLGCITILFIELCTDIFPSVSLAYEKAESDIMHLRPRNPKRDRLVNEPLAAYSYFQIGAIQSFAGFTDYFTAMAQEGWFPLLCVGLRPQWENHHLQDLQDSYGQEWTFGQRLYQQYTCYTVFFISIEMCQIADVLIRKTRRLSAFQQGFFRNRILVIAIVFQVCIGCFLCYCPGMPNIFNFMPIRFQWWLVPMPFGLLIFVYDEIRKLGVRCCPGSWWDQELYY
T1 sequence (P18434 whole entry partner): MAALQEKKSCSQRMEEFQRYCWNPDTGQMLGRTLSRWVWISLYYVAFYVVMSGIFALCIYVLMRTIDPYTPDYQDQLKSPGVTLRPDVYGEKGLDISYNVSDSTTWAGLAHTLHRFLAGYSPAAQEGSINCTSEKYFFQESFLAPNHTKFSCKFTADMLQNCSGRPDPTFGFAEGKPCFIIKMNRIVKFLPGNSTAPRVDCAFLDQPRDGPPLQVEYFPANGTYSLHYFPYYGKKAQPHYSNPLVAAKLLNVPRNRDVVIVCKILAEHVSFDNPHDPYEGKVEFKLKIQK

| Compound | ED50 ([1]; iv, read-out: ED50, inhibition of pentagastrin stimulated gastric acid secretion) [µmol/kg] | pIC50 (H^+ K^+ ATPase) | % inhibition of pentagastrin stimulated gastric acid secretion [1] [%] |
| --- | --- | --- | --- |
| CCOC(=O)c1cnc2c(OC)cccc2c1Nc1cscc1C [Example 1, Ethyl 8-methoxy-4-(4-methyl-3-thienylamino)quinoline 3-carboxylate] | 4.62 | 6.28 |  |
| CCCC(=O)c1cnc2c(OC)cccc2c1Nc1ccsc1CC [Example 2, 3-Butyryl-4-(2-ethyl-3-thienylamino)-8-methoxyquinoline] |  | 5.85 | 61 |
| CCCC(=O)c1cnc2c(OC)cccc2c1Nc1ccsc1C(=O)OC [Example 3] |  |  | 48 |
| CCCC(=O)c1cnc2c(OC)cccc2c1Nc1sccc1C [Example 4, 3-Butyryl-4-(3-methyl-2-thienylamino)-8-methoxyquinoline] |  | 5.64 | 58 |
| CCOC(=O)c1cnc2c(OC)cccc2c1Nc1cscc1OC [Example 5, Ethyl 8-methoxy-4-(4-methoxy-3-thienylamino)quinoline-3-carboxylate] |  | 5.47 | 41 |
